The values below come from patent US20220146526A1, “METHOD FOR EVALUATING SAMPLE, ANALYSIS METHOD, METHOD FOR DETECTING DEGRADED SAMPLE, MARKER FOR DETECTING DEGRADED BLOOD PLASMA SAMPLE, AND MARKER FOR DETECTING DEGRADED SERUM SAMPLE” (SHIMADZU CORPORATION, priority 2019, published 2022).

SMILES strings stand for the structures.

The first data set is described as follows: GC/MS of serum sample: time from centrifugation to isolation (Table H). Particulars: detection intensity relative to 1 at 30 minutes, after 1 hour. In kind it is physicochemical, human. Set-up: key to Rate of increase or decrease / Rate of increase or decrease (first value, increase): detection intensity relative to 1 at 30 min centrifugation-to-isolation. Here is the method: (§1) After standing, the blood sample was subjected to centrifugation under a condition of room temperature, 3500 rpm, and 5 minutes. […] After centrifugation, the blood-collecting vessel was left to stand at room temperature, and the serum was isolated during this time. Here, in order to investigate how the detection intensity of molecules contained in the sample was affected in cases where the time during which the blood-collecting vessel was left at room temperature was set to 1 hour and 6 hours as compared to that in a case where the time was set to 30 minutes, preparations were performed under the respective conditions of 30 minutes, 1 hour, and 6 hours. The obtained serum sample was frozen and stored. Here, in order to investigate how the detection intensity of molecules contained in the sample was affected in cases where freezing and thawing was performed 4 times, 6 times, and 10 times after freezing as compared to that in a case where freezing and thawing was performed 2 times after freezing, freezing and thawing was performed under the respective conditions of 2, 4, 6, and 10 times.
(§2) Frozen blood plasma samples and serum samples were subjected to GC/MS or LC/MS. In GC/MS, the blood plasma samples and serum samples were subjected to methoxymation and trimethylsilylation and then introduced to GC-MS.
(§3) GC/MS was conducted using GCMS·TQ8040 (Shimadzu Corporation) that was a GC·MS equipped with AOC·20i (Shimadzu Corporation) as an autosampler.
(§4) Column: BPX5 (inner diameter of 0.25 mm, length of 30 m, and film thickness of 0.25 μm) (SGE)
(§5) Column temperature: maintained at 60° C. for 2 minutes, then raised at 15° C./min, and maintained at 330° C. for 3 minutes.
(§6) Inlet temperature: 250° C.
(§7) Carrier gas control mode: constant linear velocity of 39.0 cm/sec
(§8) Sample introduction method: split (split ratio of 30:1) Injection volume: 1 μL
(§9) Ionization method: electron ionization
(§10) Ionization current: 60 μA
(§11) Interface temperature: 280° C.
(§12) Ion source temperature: 200° C.
(§13) Mode: multiple reaction monitoring (MRM)
The rate of increase or decrease in Table H is the value of detection intensity relative to 1 that is the detection intensity in a case where the time from centrifugation to isolation is set to 30 minutes.
For the molecule `O=C(O)c1ccccc1` [Benzoic acid], the “Rate of increase or decrease” value turned out to be 0.69.
For the molecule `NCCCCN` [Putrescine], the “Rate of increase or decrease” value turned out to be 1.54.
Regarding `NCCCCCN` [Cadaverine], the “Rate of increase or decrease” value is given as 0.50.
On to `OC[C@@H](O)[C@@H](O)[C@@H](O)CO` [Ribitol], for which the “Rate of increase or decrease” value came out at 2.32.
`O=C(O)CCC(O)C(=O)O` (stereo not drawn) [2-Hydroxyglutaric acid]: the “Rate of increase or decrease” value is 1.31.
Same read-out and setting: next, `CC(=O)C(=O)O` [Pyruvic acid]: 0.66; `CCCCCCC(N)C(=O)O` (stereo not drawn) [2-Aminooctanoic acid]: 1.67; `O=C(O)CCCCC(=O)O` [Adipic acid]: 2.50.
The same measure, in the same setting: for `O=C(O)CCCc1ccccc1` [Phenylbutyric acid] the value was 1.75.

The data set is the same for the next values; noted with them: detection intensity, after 1 hour vs 30 minutes.
`O=C(O)c1ccccc1` [Benzoic acid]: the Increase or decrease entry is on record as “Decrease”.
Regarding `NCCCCN` [Putrescine], the Increase or decrease result is given as “Increase”.
As for `NCCCCCN` [Cadaverine], the Increase or decrease entry was “Decrease”.
With `OC[C@@H](O)[C@@H](O)[C@@H](O)CO` [Ribitol], the Increase or decrease result is “Increase”.
In the case of `O=C(O)CCC(O)C(=O)O` (stereo not drawn) [2-Hydroxyglutaric acid], the Increase or decrease result was “Increase”.
On the same count and under the same terms, for `CC(=O)C(=O)O` [Pyruvic acid] the value was “Decrease”.
As for `CCCCCCC(N)C(=O)O` (stereo not drawn) [2-Aminooctanoic acid], the Increase or decrease entry is on record as “Increase”.
Take `O=C(O)CCCCC(=O)O` [Adipic acid]: the Increase or decrease entry is listed as “Increase”.
For `O=C(O)CCCc1ccccc1` [Phenylbutyric acid], the Increase or decrease result is reported as “Increase”.

The nature of the next data set: GC/MS of serum sample: time from blood collection to centrifugation (Table G). In kind it is physicochemical, human. Particulars: detection intensity relative to 1 at 15 minutes, blood collection to centrifugation, after 4 hours. As for the experimental part:
as §1, §2, §3, §4, §5, §6, §7, §8, §9, §10, §11, §12, §13
The rate of increase or decrease in Table G is the value of detection intensity relative to 1 that is the detection intensity in a case where the time from blood collection to centrifugation is set to 15 minutes.
As for `O=C(O)c1ccccc1` [Benzoic acid], the “Rate of increase or decrease” value is recorded as 1.30.
Same read-out and setting: next, `NCCCCCN` [Cadaverine]: 1.38.
Still for that read-out and setting: next, `CC(=O)C(=O)O` [Pyruvic acid]: 0.65.
Consider `CCCCCCC(N)C(=O)O` (stereo not drawn) [2-Aminooctanoic acid], for which the “Rate of increase or decrease” value was 1.60.

Staying with this data set, now noted: detection intensity relative to 1 at 15 minutes, blood collection to centrifugation, after 8 hours.
As to `NCCCCN` [Putrescine], the “Rate of increase or decrease” value is recorded as 1.44.
The same measure, in the same setting: for `OC[C@@H](O)[C@@H](O)[C@@H](O)CO` [Ribitol] the value was 1.44; for `O=C(O)CCC(O)C(=O)O` (stereo not drawn) [2-Hydroxyglutaric acid], 2.00.

The same data set, now with this note: detection intensity relative to 1 at 15 minutes, blood collection to centrifugation, after 12 hours.
For `O=C(O)CCCc1ccccc1` [Phenylbutyric acid], the “Rate of increase or decrease” value amounted to 2.17.

The data set is the same for the next values; noted with them: detection intensity, blood collection to centrifugation, after 4 hours vs 15 minutes.
With `O=C(O)c1ccccc1` [Benzoic acid], the Increase or decrease entry is reported as “Decrease”.
With `NCCCCCN` [Cadaverine], the Increase or decrease result is listed as “Increase”.
Same read-out and setting: next, `CC(=O)C(=O)O` [Pyruvic acid]: “Decrease”; `CCCCCCC(N)C(=O)O` (stereo not drawn) [2-Aminooctanoic acid]: “Increase”; `O=C(O)CCCCC(=O)O` [Adipic acid]: “Different from individual”.

Staying with this data set, now noted: detection intensity, blood collection to centrifugation, after 8 hours vs 15 minutes.
As for `NCCCCN` [Putrescine], the Increase or decrease entry was “Increase”.
On the same count and under the same terms, for `OC[C@@H](O)[C@@H](O)[C@@H](O)CO` [Ribitol] the value was “Increase”; for `O=C(O)CCC(O)C(=O)O` (stereo not drawn) [2-Hydroxyglutaric acid], “Increase”.

Staying with this data set, now noted: detection intensity, blood collection to centrifugation, after 12 hours vs 15 minutes.
For `O=C(O)CCCc1ccccc1` [Phenylbutyric acid], the Increase or decrease entry is “Increase”.

Staying with this data set, now noted: different from individual to individual, individuals with decrease, relative to 1 at 15 minutes, collection to centrifugation, after 4 hours.
For the molecule `O=C(O)CCCCC(=O)O` [Adipic acid], the “Rate of increase or decrease (second value, decrease)” value stood at 0.61.

The same data set, now with this note: different from individual to individual, individuals with increase, relative to 1 at 15 minutes, collection to centrifugation, after 4 hours.
`O=C(O)CCCCC(=O)O` [Adipic acid]: the “Rate of increase or decrease (first value, increase)” value turned out to be 2.06.

The next data set in a line: GC/MS of serum sample: number of times of freezing and thawing (Table I). In kind it is physicochemical, human. Particulars: 10 times of freezing and thawing; detection intensity relative to 1 at 2 times. Set-up: key to Rate of increase or decrease / Rate of increase or decrease (first value, increase): detection intensity relative to 2 freeze-thaw cycles = 1. As for the experimental part: as §1, §2, §3, §4, §5, §6, §7, §8, §9, §10, §11, §12, §13
The rate of increase or decrease in Table I is the value of detection intensity relative to 1 that is the detection intensity in a case where the number of times of freezing and thawing is set to 2 times.
As for `O=C(O)c1ccccc1` [Benzoic acid], the “Rate of increase or decrease” value is reported as 3.86.
Take `NCCCCN` [Putrescine]: the “Rate of increase or decrease” value is 1.77.

Staying with this data set, now noted: detection intensity relative to 1 at 2 times; serum, GC/MS; freezing and thawing 4 times.
On to `CCCCCCC(N)C(=O)O` (stereo not drawn) [2-Aminooctanoic acid], for which the “Rate of increase or decrease” value is listed as 2.80.
`O=C(O)CCCc1ccccc1` [Phenylbutyric acid]: the “Rate of increase or decrease” value turned out to be 2.61.

Staying with this data set, now noted: detection intensity relative to 1 at 2 times; serum, GC/MS; freezing and thawing 6 times.
As to `NCCCCCN` [Cadaverine], the “Rate of increase or decrease” value worked out at 2.31.

The same data set, now with this note: detection intensity relative to 1 at 2 times; serum, GC/MS; freezing and thawing 10 times.
Take `O=C(O)CCCCC(=O)O` [Adipic acid]: the “Rate of increase or decrease” value is 2.14.

Staying with this data set, now noted: detection intensity; serum, GC/MS; freezing and thawing 4 times vs 2 times.
Consider `CCCCCCC(N)C(=O)O` (stereo not drawn) [2-Aminooctanoic acid], for which the Increase or decrease entry is given as “Increase”.
As to `O=C(O)CCCc1ccccc1` [Phenylbutyric acid], the Increase or decrease result is “Increase”.

The data set is the same for the next values; noted with them: detection intensity; serum, GC/MS; freezing and thawing 6 times vs 2 times.
Regarding `NCCCCCN` [Cadaverine], the Increase or decrease result was “Increase”.

The same data set, now with this note: detection intensity; serum, GC/MS; freezing and thawing 10 times vs 2 times.
With `O=C(O)CCCCC(=O)O` [Adipic acid], the Increase or decrease entry was “Increase”.

The same data set, now with this note: serum sample, GC/MS; detection intensity changed by 30% or more vs 2 times of freezing and thawing.
Turning to `O=C(O)c1ccccc1` [Benzoic acid], the “Number of times when compound is affected” value is on record as 10 times.
The same measure, in the same setting: for `NCCCCN` [Putrescine] the value was 10 times.

Staying with this data set, now noted: serum sample, GC/MS; detection intensity vs 2 times of freezing and thawing.
Turning to `O=C(O)c1ccccc1` [Benzoic acid], the Increase or decrease entry is on record as “Increase”.
Consider `NCCCCN` [Putrescine], for which the Increase or decrease result was “Increase”.
